In brackets after ≈: the same amount, converted by molar mass.

The assay concerns Pseudomonas aeruginosa FP 2056. Description: In vitro antibacterial activity (MIC), two-fold agar-plate dilution method. It is filed as cell-based. The following applies: FP2056; test strain Pseudomonas aeruginosa FP 2056; heart infusion agar, 37° C. for 20 hours; read-out: MIC (minimal inhibitory concentration). How it is done: In vitro antibacterial activity was determined by the two-fold agar-plate dilution method as described below. One loopful of an overnight culture of each test strain in Trypticase-soy broth (10^6 viable cells per ml) was streaked-on heart infusion agar (HI-agar) containing graded concentrations of representative test compound, and the minimal inhibitory concentration (MIC) was expressed in μg/ml after incubation at 37° C. for 20 hours.

With `Cn1c(N)c(CCN)c[n+]1CC1=C(C(=O)[O-])N2C(=O)[C@@H](NC(=O)/C(=N\OC(C)(C)C(=O)O)c3nsc(N)n3)[C@H]2SC1` [Compound (b), 7β-[(Z)-2-(5-amino-1,2,4-thiadiazol-3-yl)-2-(1-carboxy-1-methylethoxyimino)acetamido]-3-[3-amino-4-(2-aminoethyl)-2-methyl-1-pyrazolio]methyl-3-cephem-4-carboxylate], the MIC turned out to be 0.5 µg/mL (≈ 0.821 µM). To `Cn1c(N)c(CCCN)c[n+]1CC1=C(C(=O)[O-])N2C(=O)[C@@H](NC(=O)/C(=N\OC(C)(C)C(=O)O)c3nsc(N)n3)[C@H]2SC1` [Compound (a), 7β-[(Z)-2-(5-amino-1,2,4-thiadiazol-3-yl)-2-(1-carboxy-1-methylethoxyimino)acetamido]-3-[3-amino-4-(3-aminopropyl)-2-methyl-1-pyrazolio]methyl-3-cephem-4-carboxylate] belongs 1 µg/mL (≈ 1.61 µM).

For the origin of these results see patent US7179801B2, “Cephem compounds” (Astellas Pharma Inc., priority 2001, dated 2007).
